From ChEMBL document CHEMBL1137652, “Prevalence and expression of the plasmid-mediated quinolone resistance determinant qnrA1” (2007)
≈ marks a conversion by molar mass, not a printed value.

Key:
Escherichia coli [1] = assay: Antimicrobial activity against azide-resistant aac(6')-Ib-cr expressing Escherichia coli J53 qnrA1 bearing pHS3 transconjugant from Citrobacter freundii 64 by agar dilution method; assay type: functional
Escherichia coli [2] = assay: Antimicrobial activity against azide-resistant aac(6')-Ib-cr deficient Escherichia coli J53 qnrA1 bearing pHS4 transconjugant from Enterobacter cloacae 91 by agar dilution method; assay type: functional
Escherichia coli [3] = assay: Antimicrobial activity against azide-resistant aac(6')-Ib-cr deficient Escherichia coli J53 qnrA1 bearing pHS5 transconjugant from Enterobacter cloacae 641 by agar dilution method; assay type: functional
Escherichia coli [4] = assay: Antimicrobial activity against azide-resistant aac(6')-Ib-cr expressing Escherichia coli J53 qnrA1 bearing pHS6 transconjugant from Escherichia coli 650 by agar dilution method; assay type: functional
Escherichia coli [5] = assay: Antimicrobial activity against azide-resistant Escherichia coli J53 by agar dilution method; assay type: functional
Enterobacter cloacae [6] = assay: Antimicrobial activity Enterobacter cloacae 641 expressing plasmid-mediated quinolone resistance qnr A gene by agar dilution method; assay type: functional
Escherichia coli [7] = assay: Antimicrobial activity Escherichia coli 633 expressing plasmid-mediated quinolone resistance qnr A gene by agar dilution method; assay type: functional
Citrobacter freundii = assay: Antimicrobial activity Citrobacter freundii 64 expressing plasmid-mediated quinolone resistance qnr A gene by agar dilution method; assay type: functional
Enterobacter cloacae [8] = assay: Antimicrobial activity Enterobacter cloacae 63 expressing plasmid-mediated quinolone resistance qnr A gene by agar dilution method; assay type: functional
Enterobacter cloacae [9] = assay: Antimicrobial activity Enterobacter cloacae 91 expressing plasmid-mediated quinolone resistance qnr A gene by agar dilution method; assay type: functional
Enterobacter cloacae [10] = assay: Antimicrobial activity Enterobacter cloacae 113 expressing plasmid-mediated quinolone resistance qnr A gene by agar dilution method; assay type: functional
Escherichia coli [11] = assay: microbe, parasite or virus in culture; details: 650
Description: (§1) Antimicrobial activity Escherichia coli 650 expressing plasmid-mediated quinolone resistance qnr A gene by agar dilution method

Escherichia coli [12] = assay: Antibacterial activity against Escherichia coli HB101 by agar dilution method; assay type: functional
Escherichia coli [13] = assay: Antibacterial activity against pKK232-8-tranformed Escherichia coli HB101 transformants harboring promoterless cat gene by agar dilution method; assay type: functional
Escherichia coli [14] = assay: Antibacterial activity against pKK232-8-HS3-transformed Escherichia coli HB101 transformants harboring promoter sequence of qnrA1 gene cloned with promoterless cat gene by agar dilution method; assay type: functional
Escherichia coli [15] = assay: Antibacterial activity against pKK232-8-HS4-transformed Escherichia coli HB101 transformants harboring promoter sequence of qnrA1 gene cloned with promoterless cat gene by agar dilution method; assay type: functional
Escherichia coli [16] = assay: Antibacterial activity against pKK232-8-HS5-transformed Escherichia coli HB101 transformants harboring promoter sequence of qnrA1 gene cloned with promoterless cat gene by agar dilution method; assay type: functional
Escherichia coli [17] = assay: Antibacterial activity against pKK232-8-HS6-transformed Escherichia coli HB101 transformants harboring promoter sequence of qnrA1 gene cloned with promoterless cat gene by agar dilution method; assay type: functional
Escherichia coli [18] = assay: Ratio of MIC for pKK232-8-HS6-transformed Escherichia coli HB101 transformants to MIC for pKK232-8-HS3-transformed Escherichia coli HB101 transformants; assay type: functional
Escherichia coli [19] = assay: Ratio of MIC for pKK232-8-HS6-transformed Escherichia coli HB101 transformants to MIC for pKK232-8-HS4-transformed Escherichia coli HB101 transformants; assay type: functional
Escherichia coli [20] = assay: Ratio of MIC for pKK232-8-HS6-transformed Escherichia coli HB101 transformants to MIC for pKK232-8-HS5-transformed Escherichia coli HB101 transformants; assay type: functional
Escherichia coli [21] = assay: Antibacterial activity against Escherichia coli isolate 1B harboring qnrA1 and blaVEB1 genes by agar dilution method
Escherichia coli [22] = details: 650
Description: as §1

Molecule	MIC (Escherichia coli [1])	MIC (Escherichia coli [2])	MIC (Escherichia coli [3])	MIC (Escherichia coli [4])	MIC (Escherichia coli [5])	MIC (Enterobacter cloacae [6])	MIC (Escherichia coli [7])	MIC (Citrobacter freundii)	MIC (Enterobacter cloacae [8])	MIC (Enterobacter cloacae [9])	MIC (Enterobacter cloacae [10])	other results
NCC[C@H](O)C(=O)N[C@@H]1C[C@H](N)[C@@H](O[C@H]2O[C@H](CN)[C@@H](O)[C@H](O)[C@H]2O)[C@H](O)[C@H]1O[C@H]1O[C@H](CO)[C@@H](O)[C@H](N)[C@H]1O [AMIKACIN]	2 µg/mL (≈ 3.42 µM)	4 µg/mL (≈ 6.83 µM)	4 µg/mL (≈ 6.83 µM)	2 µg/mL (≈ 3.42 µM)	0.5 µg/mL (≈ 0.854 µM)							
CC1(C)S[C@@H]2[C@H](NC(=O)[C@H](N)c3ccccc3)C(=O)N2[C@H]1C(=O)O [AMPICILLIN]	512 µg/mL (≈ 1470 µM)	≥ 512 µg/mL	≥ 512 µg/mL	512 µg/mL (≈ 1470 µM)	8 µg/mL (≈ 22.9 µM)							
CO/N=C(\C(=O)N[C@@H]1C(=O)N2C(C(=O)O)=C(COC(C)=O)CS[C@H]12)c1csc(N)n1 [CEFOTAXIME]	≤ 0.06 µg/mL	8 µg/mL (≈ 17.6 µM)	8 µg/mL (≈ 17.6 µM)	0.125 µg/mL (≈ 0.274 µM)	≤ 0.06 µg/mL	32 µg/mL (≈ 70.3 µM)	≥ 128 µg/mL	2 µg/mL (≈ 4.39 µM)	64 µg/mL (≈ 141 µM)	32 µg/mL (≈ 70.3 µM)	64 µg/mL (≈ 141 µM)	MIC (Escherichia coli [11]): 1 µg/mL (≈ 2.2 µM)
CC(C)(O/N=C(\C(=O)N[C@@H]1C(=O)N2C(C(=O)[O-])=C(C[n+]3ccccc3)CS[C@H]12)c1csc(N)n1)C(=O)O [CEFTAZIDIME]	0.125 µg/mL (≈ 0.229 µM)	8 µg/mL (≈ 14.6 µM)	32 µg/mL (≈ 58.5 µM)	0.125 µg/mL (≈ 0.229 µM)	0.125 µg/mL (≈ 0.229 µM)	64 µg/mL (≈ 117 µM)	4 µg/mL (≈ 7.32 µM)	4 µg/mL (≈ 7.32 µM)	32 µg/mL (≈ 58.5 µM)	128 µg/mL (≈ 234 µM)	128 µg/mL (≈ 234 µM)	MIC (Escherichia coli [11]): 4 µg/mL (≈ 7.32 µM)
O=C(N[C@H](CO)[C@H](O)c1ccc([N+](=O)[O-])cc1)C(Cl)Cl [CHLORAMPHENICOL]												MIC (Escherichia coli [12]): 3 µg/mL (≈ 9.28 µM); MIC (Escherichia coli [13]): 3 µg/mL (≈ 9.28 µM); MIC (Escherichia coli [14]): 8 µg/mL (≈ 24.8 µM); MIC (Escherichia coli [15]): 8 µg/mL (≈ 24.8 µM); MIC (Escherichia coli [16]): 8 µg/mL (≈ 24.8 µM); MIC (Escherichia coli [17]): 96 µg/mL (≈ 297 µM); Ratio (Escherichia coli [18]): 12; Ratio (Escherichia coli [19]): 12; Ratio (Escherichia coli [20]): 12
O=C(O)c1cn(C2CC2)c2cc(N3CCNCC3)c(F)cc2c1=O [CIPROFLOXACIN]												MIC (Escherichia coli [21]): > 32 µg/mL
NC[C@H]1O[C@H](O[C@H]2[C@H](O)[C@@H](O[C@H]3O[C@H](CO)[C@@H](O)[C@H](N)[C@H]3O)[C@H](N)C[C@@H]2N)[C@H](O)[C@@H](O)[C@@H]1O [KANAMYCIN]	8 µg/mL (≈ 16.5 µM)	64 µg/mL (≈ 132 µM)	64 µg/mL (≈ 132 µM)	16 µg/mL (≈ 33 µM)	0.5 µg/mL (≈ 1.03 µM)							
C[C@H]1COc2c(N3CCN(C)CC3)c(F)cc3c(=O)c(C(=O)O)cn1c23.C[C@H]1COc2c(N3CCN(C)CC3)c(F)cc3c(=O)c(C(=O)O)cn1c23.O [LEVOFLOXACIN]	0.19 µg/mL	0.19 µg/mL	0.19 µg/mL	0.38 µg/mL								
CN[C@@H]1[C@H](O[C@H]2[C@H](O[C@H]3[C@H](O)[C@@H](O)[C@H](N=C(N)N)[C@@H](O)[C@@H]3N=C(N)N)O[C@@H](C)[C@]2(O)C=O)O[C@@H](CO)[C@H](O)[C@H]1O [STREPTOMYCIN]	2 µg/mL (≈ 3.44 µM)	8 µg/mL (≈ 13.8 µM)	8 µg/mL (≈ 13.8 µM)	1 µg/mL (≈ 1.72 µM)	1 µg/mL (≈ 1.72 µM)							
Cc1cc(NS(=O)(=O)c2ccc(N)cc2)no1 [SULFAMETHOXAZOLE]	≥ 512 µg/mL	≥ 512 µg/mL	≥ 512 µg/mL	≥ 512 µg/mL	8 µg/mL (≈ 31.6 µM)	≥ 512 µg/mL	≥ 512 µg/mL	≥ 512 µg/mL	≥ 512 µg/mL	≥ 512 µg/mL	≥ 512 µg/mL	MIC (Escherichia coli [11]): ≥ 512 µg/mL
NC[C@H]1O[C@H](O[C@H]2[C@H](O)[C@@H](O[C@H]3O[C@H](CO)[C@@H](O)[C@H](N)[C@H]3O)[C@H](N)C[C@@H]2N)[C@H](N)C[C@@H]1O [TOBRAMYCIN]	8 µg/mL (≈ 17.1 µM)	8 µg/mL (≈ 17.1 µM)	8 µg/mL (≈ 17.1 µM)	8 µg/mL (≈ 17.1 µM)	0.25 µg/mL (≈ 0.535 µM)							
COc1cc(Cc2cnc(N)nc2N)cc(OC)c1OC [TRIMETHOPRIM]	≤ 0.06 µg/mL	≥ 512 µg/mL	≥ 512 µg/mL	0.25 µg/mL (≈ 0.861 µM)	≤ 0.06 µg/mL							
GENTAMICIN	8 µg/mL	2 µg/mL	2 µg/mL	0.25 µg/mL	0.25 µg/mL	4 µg/mL	> 128 µg/mL	32 µg/mL	4 µg/mL	8 µg/mL	8 µg/mL	MIC (Escherichia coli [22]): > 128 µg/mL
